Consider 4 molecules from ChEMBL document CHEMBL5380792, “Discovery of CZS-241: A Potent, Selective, and Orally Available Polo-Like Kinase 4 Inhibitor for the Treatment of Chronic Myeloid Leukemia” (J Med Chem, 2023).

In general, half-life refers to the time in which the quantity being followed falls by half. Read a high half-life as slow decline.

A short description of data set [1]: in vitro. The conditions noted are these: human, liver microsomes.
Data set [2] can be described thus: in vitro. The conditions noted are these: human, plasma.
A short description of data set [3]: in vitro. Conditions: human, plasma. The source holds these as a separate data set.
Data set [4] in a line: in vitro. The conditions noted are these: human, plasma. This is another data set of the same source.
Data set [5] is described as follows: in vitro. Conditions: human, liver microsomes. The source holds these as a separate data set. A general note: Microsomes from liver hold many membrane-bound enzymes, among them those of drug oxidation.
Data set [6] in a line: in vitro. The conditions noted are these: human, plasma. The source holds these as a separate data set.
Data set [7] in a line: in vitro. The conditions noted are these: human, plasma. The source holds these as a separate data set.
The nature of data set [8]: in vitro. Conditions: human, liver microsomes. This is another data set of the same source.

On to `C[C@]12CC[C@H]3[C@@H](CCC4=CC(=O)CC[C@@]43C)[C@@H]1CC[C@@H]2O` [TESTOSTERONE], for which the half-life in “in vitro [1]” was found to be 11.4 min.

`CC(C)[N+](C)(CCOC(=O)C1c2ccccc2Oc2ccccc21)C(C)C.[Br-]` [PROPANTHELINE BROMIDE] gave a half-life in the data set “in vitro [2]” of 19.8 min.

Consider `COc1c(Nc2cc(C)[nH]n2)nc(Sc2ccc(S(=O)(=O)Cc3cccc([N+](=O)[O-])c3F)cc2F)nc1N1CCOCC1`, for which the fraction remaining at 0.5 h in “in vitro [3]” amounted to 95%. The share remaining at 1 h was found to be 95.4% in “in vitro [4]”, 98.6% in the data set “in vitro [5]” and 1.7% in the data set “in vitro [8]”. The share remaining at 2 h in the data set “in vitro [6]” came to 97.3%. Further, the share remaining at 10 min in “in vitro [7]” came to 101%.

`O=C(O)Cc1ccccc1Nc1c(Cl)cccc1Cl` [DICLOFENAC] had a half-life in the data set “in vitro [1]” of 3.2 min.
